Consider one compound from patent US20160271160A1, “HCV POLYMERASE INHIBITORS” (MEDIVIR AB, priority 2013, published 2016).

Assay type in all cases: cell-based
Assay [1] deals with HCV GT1a NS5B in con1 background. Nature of the assay: HCV GT1a chimeric replicon. To be noted: Hepatitis C virus. The source says:
(§1) The compound of Example 2 was further evaluated to assess the antiviral activity against genotypes 1-6 of HCV, both wild type and a number of clinically relevant mutant strains. The result of the evaluation together with the average EC50 of a genotypes and the corresponding values for compound 40ii of WO2014/058801 are summarised in Tables 2 and 3.
(Replicon systems follow genome replication, usually without infectious particles.)

The test system of the next assay is HCV mutant strains. Nature of the assay: Mutant HCV panel, average.
Text: as §1

The next assay relates to HCV GT1b S282T. Nature of the assay: HCV GT1b S282T mutant replicon.
Text: as §1

For assay [2], the system named is genotypes 1-6 of HCV, wild type. Description: Wild type HCV genotype panel, average.
Text: as §1

Assay [3] deals with HCV GT5a NS5B in con1 background. Description: HCV GT5a chimeric replicon. As to conditions: Hepatitis C virus.
Text: as §1

In the next assay the test system is HCV GT1b (transient). Description: HCV GT1b (transient) replicon. As to conditions: Hepatitis C virus, wild type, geometric mean.
Text: as §1

Assay [4] has as its system HCV GT4a NS5B in con1 background. Nature of the assay: HCV GT4a chimeric replicon. To be noted: Hepatitis C virus.
Text: as §1

For a further assay, the system named is HCV GT3a S282T. Description: HCV GT3a S282T chimeric mutant replicon.
Text: as §1

The subject of assay [5] is HCV GT6a NS5B in con1 background. Description: HCV GT6a chimeric replicon. To be noted: Hepatitis C virus.
Text: as §1

A further assay relates to HCV GT4a S282T. Description: HCV GT4a S282T chimeric mutant replicon.
Text: as §1

For a further assay, the system named is HCV GT2a virus. Description: HCV GT2a virus. To be noted: Hepatitis C virus, wild type, geometric mean.
Text: as §1

A further assay relates to HCV GT1b (stable). Nature of the assay: HCV GT1b (stable) replicon. To be noted: Hepatitis C virus, wild type, geometric mean.
Text: as §1

The next assay concerns HCV GT1a S282T. Description: HCV GT1a S282T chimeric mutant replicon.
Text: as §1

The subject of assay [6] is HCV GT3a NS5B in con1 background. Nature of the assay: HCV GT3a chimeric replicon. As to conditions: Hepatitis C virus.
Text: as §1

On to `CC(C)OC(=O)[C@H](C)OP(=O)(OC[C@H]1O[C@@H](n2ccc(=O)[nH]c2=O)[C@](C)(Cl)[C@@H]1O)Oc1ccccc1` (some centres unmarked) [Cpd. 40ii of WO2014/058801], for which the EC50 in assay [1] was found to be 140 nM; with HCV mutant strains (Hepatitis C virus, read-out: AVG EC50) it was 746 nM; in the assay with HCV GT1b S282T (Hepatitis C virus, geometric mean), 344 nM; in assay [2] (Hepatitis C virus, wild type assays, arithmetic mean +/− SEM) it was 114 nM; in [3], 105 nM; in the assay with HCV GT1b (transient) it was 93 nM. Also, the EC50 amounted to 149 nM in assay [4]; 366 nM in the assay with HCV GT3a S282T (Hepatitis C virus, GT3A); 170 nM in [5]; 1720 nM in the assay with HCV GT4a S282T (Hepatitis C virus, GT4A); 26 nM in the assay with HCV GT2a virus; 91 nM in the assay with HCV GT1b (stable). Further, the EC50 is 554 nM with HCV GT1a S282T (Hepatitis C virus, GT1A) and 139 nM in assay [6]. Further, the “potency increase vs cpd. 40ii of WO2014/058801” value in the assay with HCV mutant strains ({}) worked out at 1.0; in assay [2] (wild type, from AVG EC50) it was 1.0. The “FC vs WT” value was 3.7 in the assay with HCV GT1b S282T (fold change of EC50); 2.6 in the assay on HCV GT3a S282T (HCV GT3a S282T, fold change of EC50); 12 in the assay with HCV GT4a S282T (HCV GT4a S282T, fold change of EC50); 4.0 in the assay with HCV GT1a S282T (HCV GT1a S282T, fold change of EC50).

A word on the EC50: it is the concentration giving half of the maximal effect.
